Measurements taken from the NIST ThermoML archive (doi:10.1021/je200903m).
Numbers after ± are expanded uncertainties.

Conditions: Liquid, isochoric method

## CCCCn1cc[n+](C)c1.O=S(=O)([O-])C(F)(F)F [1-butyl-3-methylimidazolium trifluoromethanesulfonate]
290.5 K, 40403 kPa
  mass density: 1326.13 ± 1.5 kg/m3
290.51 K, 20585 kPa
  mass density: 1315.76 ± 1.4 kg/m3
290.53 K, 10565 kPa
  mass density: 1310.84 ± 1.4 kg/m3
290.69 K, 30827 kPa
  mass density: 1321.18 ± 1.4 kg/m3
291.26 K, 1592.1 kPa
  mass density: 1304.62 ± 1.4 kg/m3
298.15 K, 9757.7 kPa
  mass density: 1303.63 ± 1.4 kg/m3
298.15 K, 19969 kPa
  mass density: 1309.73 ± 1.4 kg/m3
298.15 K, 20141 kPa
  mass density: 1309.72 ± 1.4 kg/m3
298.15 K, 30285 kPa
  mass density: 1314.63 ± 1.4 kg/m3
298.15 K, 50367 kPa
  mass density: 1324.98 ± 1.4 kg/m3
298.16 K, 9701.7 kPa
  mass density: 1303.63 ± 1.4 kg/m3
298.16 K, 19936 kPa
  mass density: 1309.73 ± 1.4 kg/m3
298.16 K, 30053 kPa
  mass density: 1314.64 ± 1.4 kg/m3
298.16 K, 40303 kPa
  mass density: 1320.08 ± 1.4 kg/m3
298.16 K, 40410 kPa
  mass density: 1320.08 ± 1.4 kg/m3
298.17 K, 10081 kPa
  mass density: 1303.62 ± 1.4 kg/m3
298.17 K, 10432 kPa
  mass density: 1304.22 ± 1.4 kg/m3
298.17 K, 50464 kPa
  mass density: 1324.97 ± 1.4 kg/m3
299.03 K, 2480.8 kPa
  mass density: 1298.81 ± 1.4 kg/m3
305.41 K, 59674 kPa
  mass density: 1323.93 ± 1.4 kg/m3
305.45 K, 10034 kPa
  mass density: 1297.93 ± 1.4 kg/m3
305.45 K, 19292 kPa
  mass density: 1303.2 ± 1.4 kg/m3
305.9 K, 39945 kPa
  mass density: 1313.54 ± 1.4 kg/m3
306 K, 29921 kPa
  mass density: 1308.61 ± 1.4 kg/m3
306 K, 50404 kPa
  mass density: 1318.95 ± 1.4 kg/m3
306.05 K, 19559 kPa
  mass density: 1302.52 ± 1.4 kg/m3
307.17 K, 1752 kPa
  mass density: 1291.55 ± 1.4 kg/m3
313.41 K, 59599 kPa
  mass density: 1317.95 ± 1.4 kg/m3
313.93 K, 49845 kPa
  mass density: 1312.46 ± 1.4 kg/m3
314.21 K, 9839.1 kPa
  mass density: 1290.64 ± 1.4 kg/m3
314.21 K, 20109 kPa
  mass density: 1296.78 ± 1.4 kg/m3
314.21 K, 39744 kPa
  mass density: 1307.53 ± 1.4 kg/m3
314.32 K, 29477 kPa
  mass density: 1301.43 ± 1.4 kg/m3
314.85 K, 831 kPa
  mass density: 1284.6 ± 1.4 kg/m3
321.66 K, 59111 kPa
  mass density: 1311.47 ± 1.4 kg/m3
321.82 K, 29288 kPa
  mass density: 1295.81 ± 1.4 kg/m3
323.07 K, 39773 kPa
  mass density: 1300.33 ± 1.4 kg/m3
323.16 K, 50452 kPa
  mass density: 1306.39 ± 1.4 kg/m3
323.18 K, 10082 kPa
  mass density: 1283.58 ± 1.4 kg/m3
323.2 K, 20072 kPa
  mass density: 1289.53 ± 1.4 kg/m3
323.4 K, 1581.8 kPa
  mass density: 1277.54 ± 1.4 kg/m3
330.39 K, 28233 kPa
  mass density: 1288.68 ± 1.4 kg/m3
330.5 K, 39240 kPa
  mass density: 1294.79 ± 1.4 kg/m3
331.3 K, 241.1 kPa
  mass density: 1270.51 ± 1.4 kg/m3
331.38 K, 10182 kPa
  mass density: 1276.63 ± 1.4 kg/m3
331.38 K, 19050 kPa
  mass density: 1282.64 ± 1.4 kg/m3
331.38 K, 59986 kPa
  mass density: 1305.41 ± 1.4 kg/m3
331.78 K, 49813 kPa
  mass density: 1299.3 ± 1.4 kg/m3
339.84 K, 49769 kPa
  mass density: 1293.74 ± 1.4 kg/m3
340.71 K, 39738 kPa
  mass density: 1287.53 ± 1.4 kg/m3
340.73 K, 10118 kPa
  mass density: 1269.5 ± 1.4 kg/m3
340.75 K, 20227 kPa
  mass density: 1275.61 ± 1.4 kg/m3
340.93 K, 60046 kPa
  mass density: 1298.28 ± 1.4 kg/m3
341.39 K, 30102 kPa
  mass density: 1281.54 ± 1.4 kg/m3
341.68 K, 1330.2 kPa
  mass density: 1262.9 ± 1.4 kg/m3
347.88 K, 58421 kPa
  mass density: 1292.89 ± 1.4 kg/m3
350.01 K, 30185 kPa
  mass density: 1274.67 ± 1.4 kg/m3
350.14 K, 9957.7 kPa
  mass density: 1262.06 ± 1.4 kg/m3
350.15 K, 19909 kPa
  mass density: 1268.55 ± 1.4 kg/m3
350.31 K, 39671 kPa
  mass density: 1280.63 ± 1.4 kg/m3
350.38 K, 50208 kPa
  mass density: 1286.54 ± 1.4 kg/m3

## CCn1cc[n+](C)c1.F[B-](F)(F)F [1-ethyl-3-methylimidazolium tetrafluoroborate]
284.73 K, 40082 kPa
  mass density: 1309.71 ± 1.3 kg/m3
284.74 K, 29331 kPa
  mass density: 1305.75 ± 1.3 kg/m3
285.12 K, 9993.5 kPa
  mass density: 1296.4 ± 1.3 kg/m3
285.2 K, 19389 kPa
  mass density: 1300.88 ± 1.3 kg/m3
285.8 K, 1326.9 kPa
  mass density: 1292.98 ± 1.3 kg/m3
290.95 K, 50018 kPa
  mass density: 1309.1 ± 1.3 kg/m3
291.3 K, 39987 kPa
  mass density: 1305.11 ± 1.3 kg/m3
291.58 K, 20094 kPa
  mass density: 1295.79 ± 1.3 kg/m3
291.59 K, 10267 kPa
  mass density: 1292.43 ± 1.3 kg/m3
292 K, 30197 kPa
  mass density: 1300.22 ± 1.3 kg/m3
292.03 K, 1055.4 kPa
  mass density: 1288.31 ± 1.3 kg/m3
298.14 K, 10219 kPa
  mass density: 1287.74 ± 1.3 kg/m3
298.14 K, 19834 kPa
  mass density: 1291.82 ± 1.3 kg/m3
298.15 K, 20203 kPa
  mass density: 1291.81 ± 1.3 kg/m3
298.15 K, 29284 kPa
  mass density: 1295.18 ± 1.3 kg/m3
298.15 K, 39774 kPa
  mass density: 1299.63 ± 1.3 kg/m3
298.15 K, 39935 kPa
  mass density: 1299.63 ± 1.3 kg/m3
298.15 K, 50710 kPa
  mass density: 1304.44 ± 1.3 kg/m3
298.15 K, 61191 kPa
  mass density: 1308.4 ± 1.3 kg/m3
298.16 K, 30299 kPa
  mass density: 1295.16 ± 1.3 kg/m3
298.63 K, 1139.7 kPa
  mass density: 1283.3 ± 1.3 kg/m3
304.09 K, 59595 kPa
  mass density: 1303.87 ± 1.3 kg/m3
304.39 K, 39527 kPa
  mass density: 1294.57 ± 1.3 kg/m3
304.61 K, 49734 kPa
  mass density: 1299.01 ± 1.3 kg/m3
304.62 K, 29983 kPa
  mass density: 1291.2 ± 1.3 kg/m3
304.69 K, 10037 kPa
  mass density: 1282.74 ± 1.3 kg/m3
304.69 K, 19721 kPa
  mass density: 1287.13 ± 1.3 kg/m3
305.23 K, 1194.1 kPa
  mass density: 1278.54 ± 1.3 kg/m3
311.4 K, 39938 kPa
  mass density: 1290.56 ± 1.3 kg/m3
311.49 K, 30054 kPa
  mass density: 1286.49 ± 1.3 kg/m3
311.51 K, 60021 kPa
  mass density: 1298.35 ± 1.3 kg/m3
311.55 K, 19542 kPa
  mass density: 1282.12 ± 1.3 kg/m3
311.56 K, 10293 kPa
  mass density: 1277.95 ± 1.3 kg/m3
311.72 K, 50382 kPa
  mass density: 1293.87 ± 1.3 kg/m3
312.05 K, 1111.5 kPa
  mass density: 1273.28 ± 1.3 kg/m3
318.36 K, 19918 kPa
  mass density: 1277.33 ± 1.3 kg/m3
318.37 K, 9976 kPa
  mass density: 1272.71 ± 1.3 kg/m3
318.37 K, 50094 kPa
  mass density: 1289.9 ± 1.3 kg/m3
318.4 K, 39958 kPa
  mass density: 1285.84 ± 1.3 kg/m3
318.49 K, 30004 kPa
  mass density: 1281.46 ± 1.3 kg/m3
318.57 K, 60242 kPa
  mass density: 1293.23 ± 1.3 kg/m3
319.24 K, 1155.6 kPa
  mass density: 1268 ± 1.3 kg/m3
325.39 K, 60094 kPa
  mass density: 1289.24 ± 1.3 kg/m3
325.5 K, 50050 kPa
  mass density: 1285.18 ± 1.3 kg/m3
325.59 K, 30106 kPa
  mass density: 1276.66 ± 1.3 kg/m3
325.59 K, 39966 kPa
  mass density: 1280.8 ± 1.3 kg/m3
325.65 K, 9902.1 kPa
  mass density: 1267.42 ± 1.3 kg/m3
325.66 K, 18720 kPa
  mass density: 1272.06 ± 1.3 kg/m3
326.26 K, 1166.5 kPa
  mass density: 1262.28 ± 1.3 kg/m3
332.57 K, 59788 kPa
  mass density: 1284.52 ± 1.3 kg/m3
332.79 K, 39915 kPa
  mass density: 1275.99 ± 1.3 kg/m3
332.85 K, 50074 kPa
  mass density: 1280.13 ± 1.3 kg/m3
332.87 K, 29859 kPa
  mass density: 1271.38 ± 1.3 kg/m3
332.99 K, 10159 kPa
  mass density: 1261.67 ± 1.3 kg/m3
333.07 K, 19960 kPa
  mass density: 1266.75 ± 1.3 kg/m3
333.62 K, 1252.9 kPa
  mass density: 1257.28 ± 1.3 kg/m3
340.28 K, 59745 kPa
  mass density: 1279.45 ± 1.3 kg/m3
340.35 K, 9969.2 kPa
  mass density: 1256.69 ± 1.3 kg/m3
340.37 K, 19698 kPa
  mass density: 1261.02 ± 1.3 kg/m3
340.39 K, 50227 kPa
  mass density: 1275.3 ± 1.3 kg/m3
340.42 K, 39835 kPa
  mass density: 1270.69 ± 1.3 kg/m3
340.55 K, 29899 kPa
  mass density: 1266.08 ± 1.3 kg/m3
341.04 K, 1357.1 kPa
  mass density: 1251.73 ± 1.3 kg/m3
347.77 K, 59854 kPa
  mass density: 1274.63 ± 1.3 kg/m3
347.97 K, 10024 kPa
  mass density: 1251.12 ± 1.3 kg/m3
348.02 K, 29830 kPa
  mass density: 1260.33 ± 1.3 kg/m3
348.04 K, 19820 kPa
  mass density: 1256 ± 1.3 kg/m3
348.15 K, 49790 kPa
  mass density: 1269.99 ± 1.3 kg/m3
348.24 K, 39938 kPa
  mass density: 1265.38 ± 1.3 kg/m3
355.85 K, 20035 kPa
  mass density: 1250.42 ± 1.3 kg/m3
355.86 K, 29675 kPa
  mass density: 1255.31 ± 1.3 kg/m3
356.01 K, 40147 kPa
  mass density: 1259.61 ± 1.3 kg/m3
356.02 K, 49918 kPa
  mass density: 1264.68 ± 1.3 kg/m3
356.4 K, 59860 kPa
  mass density: 1269.25 ± 1.3 kg/m3
